Patent EP1585727B1, “INDOLES USEFUL IN THE TREATMENT OF ANDROGEN-RECEPTOR RELATED DISEASES” (priority 2002, dated 2004)
Structures can show the parent of a compound that is named as a salt.

Biological target: T1, human androgen receptor (Homo sapiens, UniProt P10275)
T1 construct: expressed in transfected cells; host or cells: Chinese hamster ovary (CHO) cells, cell line CHO-AR-pMMTV-LUC 1G12-A5-CA
T1 sequence (P10275 1-920): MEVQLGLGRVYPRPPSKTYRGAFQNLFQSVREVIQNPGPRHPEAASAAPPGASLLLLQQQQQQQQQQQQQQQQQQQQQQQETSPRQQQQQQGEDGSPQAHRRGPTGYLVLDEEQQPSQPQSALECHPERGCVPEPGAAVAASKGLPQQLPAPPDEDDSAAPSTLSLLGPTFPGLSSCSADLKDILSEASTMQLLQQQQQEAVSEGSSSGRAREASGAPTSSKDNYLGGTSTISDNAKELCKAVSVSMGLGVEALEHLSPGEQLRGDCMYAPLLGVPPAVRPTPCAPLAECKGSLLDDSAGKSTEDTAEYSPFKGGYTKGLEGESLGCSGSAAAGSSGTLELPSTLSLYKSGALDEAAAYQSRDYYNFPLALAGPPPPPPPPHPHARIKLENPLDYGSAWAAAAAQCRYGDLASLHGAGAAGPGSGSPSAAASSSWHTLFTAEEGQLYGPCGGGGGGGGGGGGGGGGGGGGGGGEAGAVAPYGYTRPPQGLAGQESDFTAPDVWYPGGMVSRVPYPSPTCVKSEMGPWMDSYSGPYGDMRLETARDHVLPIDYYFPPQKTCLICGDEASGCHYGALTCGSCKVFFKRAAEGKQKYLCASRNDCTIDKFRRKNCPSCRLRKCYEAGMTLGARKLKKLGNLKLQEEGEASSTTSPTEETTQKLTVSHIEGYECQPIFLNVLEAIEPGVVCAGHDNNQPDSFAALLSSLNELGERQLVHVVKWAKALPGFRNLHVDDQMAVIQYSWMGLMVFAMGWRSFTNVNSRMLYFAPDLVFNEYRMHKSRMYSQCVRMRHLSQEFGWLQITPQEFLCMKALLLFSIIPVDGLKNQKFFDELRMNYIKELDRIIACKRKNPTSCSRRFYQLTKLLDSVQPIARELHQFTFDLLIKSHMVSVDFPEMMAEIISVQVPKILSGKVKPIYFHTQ
Experiment: Androgen receptor transactivation assay, antiandrogenic activity: inhibition of transactivation in the presence of 1 nM DHT (CHO-AR-pMMTV-LUC cells; Table 4)
Format: cell-based
Conditions: antiandrogenic activity, in the presence of 1 nM DHT; read-out: ant EC50
Method: Compounds were tested for their Androgen Receptor activity in a transactivation assay and in a binding assay.
The (anti-)androgenic activity of test compounds (EC50 and intrinsic activity) was determined in an in vitro bioassay of Chinese hamster ovary (CHO) cells stably transfected with the human androgen receptor expression plasmid and a reporter plasmid in which the MMTV-promoter is linked to the luciferase reporter gene. The cell-line CHO-AR-pMMTV-LUC 1G12-AS-CA is described in Schoonen et al. (2000), Journal of Steroid Biochemistry and Molecular Biology 74(4):213-222. The antiandrogenic activity of a test compound was determined by the inhibition of the transactivation via the androgen receptor of the enzyme luciferase in the presence of 1 nM DHT (5 α-dihydrotestosterone, 17β-hydroxy-5α-androstan-3-one). Intrinsic activity of antiandrogenic activity was determined in the presence of the reference antiandrogen 2-Hydroxy-2-methyl-N-(4-nitro-3-trifluoromethyl-phenyl)-propionamide (Hydroxyflutamide), and set at 100%. For androgenic activity, maximal intrinsic activity in the presence of 100 nM DHT was set at 100%. Table 4 Androgen receptor activity

| SMILES | EC50 |
| --- | --- |
| CC(C)NC(=O)c1ccc2c(Sc3ccccc3[N+](=O)[O-])cn(Cc3cc(F)cc(F)c3)c2c1 [Compound 46] | > 10 µM |

Same assay, conditions: in the presence of 1 nM DHT; intrinsic activity relative to reference antiandrogen Hydroxyflutamide (set at 100%); read-out: ant efficacy

| SMILES | Emax |
| --- | --- |
| COc1ccc2c(Sc3ccccc3[N+](=O)[O-])cn(Cc3cc(F)ccc3F)c2c1 [Compound 1] | < 20% |
| COc1ccc2c(Sc3ccccc3[N+](=O)[O-])cn(Cc3cccc(C)c3F)c2c1 [Compound 2] | < 20% |
| COc1ccc2c(Sc3ccccc3[N+](=O)[O-])cn(Cc3ccccc3Cl)c2c1 [Compound 3] | < 20% |
| COc1ccc2c(Sc3ccccc3[N+](=O)[O-])cn(Cc3ccccc3C#N)c2c1 [Compound 4] | 20 to 50% |
| COc1ccc2c(Sc3ccccc3[N+](=O)[O-])cn(Cc3ccccc3F)c2c1 [Compound 5] | < 20% |
| COc1ccc2c(Sc3ccccc3[N+](=O)[O-])cn(Cc3ccccc3C)c2c1 [Compound 7] | < 20% |
| COc1ccc2c(Sc3ccccc3[N+](=O)[O-])cn(Cc3ccccn3)c2c1 [Compound 10, 6-Methoxy-3-(2-nitro-phenylsulfanyl)-1-pyridin-2 ylmethyl-1H-indole monohydrochloride] | < 20% |
| COc1ccc2c(Sc3ccccc3[N+](=O)[O-])cn(Cc3ccccc3C(F)(F)F)c2c1 [Compound 12] | < 20% |
| COc1ccc2c(Sc3ccccc3[N+](=O)[O-])cn(Cc3cc(C)on3)c2c1 [Compound 13] | < 20% |
| COc1ccc2c(Sc3ccccc3[N+](=O)[O-])cn(Cc3ccc(Cl)c(Cl)c3)c2c1 [Compound 14] | < 20% |
| COc1ccc2c(Sc3ccccc3[N+](=O)[O-])cn(Cc3cc(Cl)cc(Cl)c3)c2c1 [Compound 15] | < 20% |
| CNC(=O)c1ccccc1Sc1cn(Cc2cc(F)cc(F)c2)c2cc(OC)ccc12 [Compound 17, 2-[1-(3,5-Difluoro-benzyl)-6-methoxy-1H-indol-3-ylsulfanyl]-N-methyl-benzamide] | 50 to 80% |
| COC(=O)c1ccccc1Sc1cn(Cc2cc(F)cc(F)c2)c2cc(OC)ccc12 [Compound 19, 2-[1-(3,5-Difluoro-benzyl)-6-methoxy-1H-indol-3-ylsulfanyl]-benzoic acid methyl ester] | < 20% |
| COc1ccc2c(Sc3ccccc3C#N)cn(Cc3cc(F)cc(F)c3)c2c1 [Compound 20, 2-[1-(3,5-Difluoro-benzyl)-6-methoxy-1H-indol-3-ylsulfanyl]-benzonitrile] | < 20% |
| O=[N+]([O-])c1ccccc1Sc1cn(Cc2cc(F)cc(F)c2)c2cc(Br)ccc12 [Compound 22] | < 20% |
| O=[N+]([O-])c1ccccc1Sc1cn(Cc2cc(F)cc(F)c2)c2cc(C(F)(F)F)ccc12 [Compound 23] | < 20% |
| O=[N+]([O-])c1ccccc1Sc1cn(Cc2cc(F)cc(F)c2)c2cc(CO)ccc12 [Compound 24] | < 20% |
| O=[N+]([O-])c1ccccc1Sc1cn(Cc2cc(F)cc(F)c2)c2cc(Cl)ccc12 [Compound 25] | < 20% |
| N#Cc1ccc2c(Sc3ccccc3[N+](=O)[O-])cn(Cc3cc(F)cc(F)c3)c2c1 [Compound 26, 1-(3,5-Difluoro-benzyl)-3-(2-nitro-phenylsulfanyl)-1H-indole-6-carbonitrile] | < 20% |
| O=C(c1ccc2c(Sc3ccccc3[N+](=O)[O-])cn(Cc3cc(F)cc(F)c3)c2c1)N1CCCC1 [Compound 27] | < 20% |

| SMILES | Emax |
| --- | --- |
| O=C(c1ccc2c(Sc3ccccc3[N+](=O)[O-])cn(Cc3cc(F)cc(F)c3)c2c1)N1CCOCC1 [Compound 28] | < 20% |
| CN1CCN(C(=O)c2ccc3c(Sc4ccccc4[N+](=O)[O-])cn(Cc4cc(F)cc(F)c4)c3c2)CC1 [Compound 29] | < 20% |
| O=C(O)c1ccc2c(Sc3ccccc3[N+](=O)[O-])cn(Cc3cc(F)cc(F)c3)c2c1 [Compound 30, 1-(3,5-Difluoro-benzyl)-3-(2-nitro-phenylsulfanyl)-1H-indole-6-carboxylic acid] | < 20% |
| COC(=O)c1ccc2c(Sc3ccccc3[N+](=O)[O-])cn(Cc3cc(F)cc(F)c3)c2c1 [Compound 31, 1-(3,5-Difluoro-benzyl)-3-(2-nitro-phenylsulfanyl)-1H-indole-6-carboxylic acid methyl ester] | < 20% |
| NC(=O)c1ccc2c(Sc3ccccc3[N+](=O)[O-])cn(Cc3cc(F)cc(F)c3)c2c1 [Compound 33, 1-(3,5-Difluoro-benzyl)-3-(2-nitro-phenylsulfanyl)-1H-indole-6-carboxylic acid amide] | < 20% |
| O=C(NCc1ccco1)c1ccc2c(Sc3ccccc3[N+](=O)[O-])cn(Cc3cc(F)cc(F)c3)c2c1 [Compound 34] | < 20% |
| O=C(NCc1cccnc1)c1ccc2c(Sc3ccccc3[N+](=O)[O-])cn(Cc3cc(F)cc(F)c3)c2c1 [Compound 35] | < 20% |
| CN(C)CCNC(=O)c1ccc2c(Sc3ccccc3[N+](=O)[O-])cn(Cc3cc(F)cc(F)c3)c2c1 [Compound 36] | < 20% |
| O=C(NCCO)c1ccc2c(Sc3ccccc3[N+](=O)[O-])cn(Cc3cc(F)cc(F)c3)c2c1 [Compound 37] | < 20% |
| COCCNC(=O)c1ccc2c(Sc3ccccc3[N+](=O)[O-])cn(Cc3cc(F)cc(F)c3)c2c1 [Compound 38] | < 20% |
| COC(=O)CNC(=O)c1ccc2c(Sc3ccccc3[N+](=O)[O-])cn(Cc3cc(F)cc(F)c3)c2c1 [Compound 39] | < 20% |
| CN(C)C(=O)CNC(=O)c1ccc2c(Sc3ccccc3[N+](=O)[O-])cn(Cc3cc(F)cc(F)c3)c2c1 [Compound 40] | < 20% |
| O=C(NCC1CC1)c1ccc2c(Sc3ccccc3[N+](=O)[O-])cn(Cc3cc(F)cc(F)c3)c2c1 [Compound 41] | < 20% |
| CC(C)CNC(=O)c1ccc2c(Sc3ccccc3[N+](=O)[O-])cn(Cc3cc(F)cc(F)c3)c2c1 [Compound 42] | < 20% |
| O=C(NC1CC1)c1ccc2c(Sc3ccccc3[N+](=O)[O-])cn(Cc3cc(F)cc(F)c3)c2c1 [Compound 44] | < 20% |
| CCNC(=O)c1ccc2c(Sc3ccccc3[N+](=O)[O-])cn(Cc3cc(F)cc(F)c3)c2c1 [Compound 45] | < 20% |
| CNC(=O)c1ccc2c(Sc3ccccc3[N+](=O)[O-])cn(Cc3cc(F)cc(F)c3)c2c1 [Compound 47, 1-(3,5-Difluoro-benzyl)-3-(2-nitro-phenylsulfanyl)-1H-indole-6-carboxylic acid methylamide] | < 20% |
| CN(C)C(=O)c1ccc2c(Sc3ccccc3[N+](=O)[O-])cn(Cc3cc(F)cc(F)c3)c2c1 [Compound 49] | < 20% |
| O=[N+]([O-])c1ccccc1Sc1cn(Cc2cc(F)cc(F)c2)c2cc(F)ccc12 [Compound 50] | < 20% |

Same assay, conditions: read-out: ant efficacy, in the presence of 1 nM DHT; intrinsic activity relative to reference antiandrogen Hydroxyflutamide (set at 100%)

| SMILES | Emax |
| --- | --- |
| COc1ccc2c(Sc3ccccc3[N+](=O)[O-])cn(Cc3cccc([N+](=O)[O-])c3C)c2c1 [Compound 6] | < 20% |
| COc1ccc2c(Sc3ccccc3[N+](=O)[O-])cn(Cc3ccccc3[N+](=O)[O-])c2c1 [Compound 8] | < 20% |
| COc1ccc2c(Sc3ccccc3[N+](=O)[O-])cn(Cc3ccccn3)c2c1 [Compound 9, 6-Methoxy-3-(2-nitro-phenylsulfanyl)-1-pyridin-2-ylmethyl-1H-indole] | 20 to 50% |
| COc1ccc2c(Sc3ccccc3[N+](=O)[O-])cn(CC3CCCCO3)c2c1 (stereo not shown) [Compound 11] | < 20% |
| COc1ccc2c(Sc3ccccc3CO)cn(Cc3cc(F)cc(F)c3)c2c1 [Compound 16, {2-[1-(3,5-Difluoro-benzyl)-6-methoxy-1H-indol-3-ylsulfanyl]-phenyl}-methanol] | 20 to 50% |
| CCN(CC)C(=O)c1ccc2c(Sc3ccccc3[N+](=O)[O-])cn(Cc3cc(F)cc(F)c3)c2c1 [Compound 32] | 20 to 50% |
| O=C(NCc1ccccc1)c1ccc2c(Sc3ccccc3[N+](=O)[O-])cn(Cc3cc(F)cc(F)c3)c2c1 [Compound 43] | 20 to 50% |
| CC(C)NC(=O)c1ccc2c(Sc3ccccc3[N+](=O)[O-])cn(Cc3cc(F)cc(F)c3)c2c1 [Compound 46] | 20 to 50% |
| CCCNC(=O)c1ccc2c(Sc3ccccc3[N+](=O)[O-])cn(Cc3cc(F)cc(F)c3)c2c1 [Compound 48] | 20 to 50% |
